# Columns and labels:
# Assay type in all cases: cell-based, mouse
# TCR15 = experiment: Single SABR-II co-incubation, NFAT-GFP Jurkat; settings: TCR 15, Fig 3B, 18 h
# Outline: (§1)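 Single SABR-II constructs for putative cognate epitopes were expressed in CellTrace Violet-labelled NFAT–GFP Jurkat cells and co-incubated 1:1 (5 × 10^5 each) with TCR-expressing Jurkat cells for 16–20 h. GFP (with CD69 staining when indicated) was measured by flow cytometry. Wells with GFP above the no-TCR control were scored positive.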
# TCR4 = experiment: Single SABR-II co-incubation, NFAT-GFP Jurkat; settings: TCR 4
# Outline: as §1
# TCR37 = experiment: Single SABR-II co-incubation, NFAT-GFP Jurkat; settings: TCR 37, Fig 3B, 18 h
# Outline: as §1
# TCR24 = experiment: Single SABR-II co-incubation, NFAT-GFP Jurkat; settings: TCR 24, Fig 3B, 18 h
# Outline: as §1
# TCR30 = experiment: Single SABR-II co-incubation, NFAT-GFP Jurkat; settings: TCR 30
# Outline: as §1
# TCR11 = experiment: Single SABR-II co-incubation, NFAT-GFP Jurkat; settings: TCR 11
# Outline: as §1
# 5KC cells, No TCR = experiment: mIL-2 ELISA, 5KC cells without TCR with SABR NFAT-GFP Jurkat cells; settings: murine IL-2 ELISA, 24 hr co-incubation
# [1] = Fig 3B, 18 h, biological replicate 1
# [2] = Fig 3B, 18 h, biological replicate 2
# [3] = Fig 3B, 18 h, biological replicate 3
sequence,measurement,setting,value
LQTLALNAARDP,%GFP+CD69+ cells of SABR-NFAT-GFP-Jurkat cells,TCR15; biological replicate 1,39.97%
same,%GFP+CD69+ cells of SABR-NFAT-GFP-Jurkat cells,TCR15; biological replicate 2,41.2%
same,%GFP+CD69+ cells of SABR-NFAT-GFP-Jurkat cells,TCR15; biological replicate 3,48.23%
same,%GFP+CD69+ cells of SABR-NFAT-GFP-Jurkat cells,"TCR4; Ext. Data Fig. 6C, 18-20 hr, technical replicate 1",21.3%
same,%GFP+CD69+ cells of SABR-NFAT-GFP-Jurkat cells,"TCR4; Ext. Data Fig. 6C, 18-20 hr, technical replicate 2",21.3%
same,%GFP+CD69+ cells of SABR-NFAT-GFP-Jurkat cells,TCR4; [1],36.63%
same,%GFP+CD69+ cells of SABR-NFAT-GFP-Jurkat cells,TCR4; [2],32.63%
same,%GFP+CD69+ cells of SABR-NFAT-GFP-Jurkat cells,TCR4; [3],39.93%
same,%GFP+CD69+ cells of SABR-NFAT-GFP-Jurkat cells,"TCR4; Fig 4B, technical replicate 1",25.9%
same,%GFP+CD69+ cells of SABR-NFAT-GFP-Jurkat cells,"TCR4; Fig 4B, technical replicate 2",25.4%
same,%GFP+CD69+ cells of SABR-NFAT-GFP-Jurkat cells,"TCR4; Fig 5C, technical replicate 1",42.4%
same,%GFP+CD69+ cells of SABR-NFAT-GFP-Jurkat cells,"TCR4; Fig 5C, technical replicate 2",42.4%
SHLVEALYLVCGERG,%GFP+CD69+ cells of SABR-NFAT-GFP-Jurkat cells,TCR37; biological replicate 1,31.07%
same,%GFP+CD69+ cells of SABR-NFAT-GFP-Jurkat cells,TCR37; biological replicate 2,38.77%
same,%GFP+CD69+ cells of SABR-NFAT-GFP-Jurkat cells,TCR37; biological replicate 3,34.13%
same,%GFP+CD69+ cells of SABR-NFAT-GFP-Jurkat cells,TCR24; biological replicate 1,14.87%
same,%GFP+CD69+ cells of SABR-NFAT-GFP-Jurkat cells,TCR24; biological replicate 2,17.6%
same,%GFP+CD69+ cells of SABR-NFAT-GFP-Jurkat cells,TCR24; biological replicate 3,16.8%
same,%GFP+CD69+ cells of SABR-NFAT-GFP-Jurkat cells,TCR30; [1],5.68%
same,%GFP+CD69+ cells of SABR-NFAT-GFP-Jurkat cells,TCR30; [2],7.14%
same,%GFP+CD69+ cells of SABR-NFAT-GFP-Jurkat cells,TCR30; [3],5.4%
same,%GFP+CD69+ cells of SABR-NFAT-GFP-Jurkat cells,"TCR30; Fig 4B, replicate 1",3.98%
same,%GFP+CD69+ cells of SABR-NFAT-GFP-Jurkat cells,"TCR30; Fig 4B, replicate 2",3.65%
same,%GFP+CD69+ cells of SABR-NFAT-GFP-Jurkat cells,"TCR30; Fig 4B, replicate 3",3.27%
same,%GFP+CD69+ cells of SABR-NFAT-GFP-Jurkat cells,TCR11; [1],7.09%
same,%GFP+CD69+ cells of SABR-NFAT-GFP-Jurkat cells,TCR11; [2],7.41%
same,%GFP+CD69+ cells of SABR-NFAT-GFP-Jurkat cells,TCR11; [3],7.96%
same,%GFP+CD69+ cells of SABR-NFAT-GFP-Jurkat cells,"TCR11; Fig 4B, technical replicate 1",4.58%
same,%GFP+CD69+ cells of SABR-NFAT-GFP-Jurkat cells,"TCR11; Fig 4B, technical replicate 2",4.07%
same,IL-2 secretion,"5KC cells, No TCR; technical replicate 1",2.192
same,IL-2 secretion,"5KC cells, No TCR; technical replicate 2",4.996

# From publication PMC11093748, “De novo identification of CD4^+ T cell epitopes” (Nature Methods, 2024)
